Consider two molecules from article PMC12169663, “Deciphering the Tumor Uptake of Heterobivalent (SST2/Albumin) [^64Cu]Cu-NODAGA-cLAB-TATEs” (Journal of Medicinal Chemistry, 2025).

Read-outs that look alike come from different tables or passages of the source.

Data set [1] deals with T1, HSA (Homo sapiens, UniProt P02768). The data set is described as follows: Kd[HSA] from SST2 saturation binding in presence of HSA, nonlinear regression with model of Blakeley et al. An excerpt: Blakeley et al. developed a mathematical model that includes radioligand, protein (herein HSA), and target receptor (herein SST2) to derive the K d[HSA] value of the radioligand from saturation binding experiments to the target receptor in the presence of HSA. The authors specified an explicit mathematical solution for their proposed cubic equation and provided this solution also in a practical format for GraphPad Prism, which allows the analysis of experimental data but also simulations.
T1 sequence (P02768 25-609): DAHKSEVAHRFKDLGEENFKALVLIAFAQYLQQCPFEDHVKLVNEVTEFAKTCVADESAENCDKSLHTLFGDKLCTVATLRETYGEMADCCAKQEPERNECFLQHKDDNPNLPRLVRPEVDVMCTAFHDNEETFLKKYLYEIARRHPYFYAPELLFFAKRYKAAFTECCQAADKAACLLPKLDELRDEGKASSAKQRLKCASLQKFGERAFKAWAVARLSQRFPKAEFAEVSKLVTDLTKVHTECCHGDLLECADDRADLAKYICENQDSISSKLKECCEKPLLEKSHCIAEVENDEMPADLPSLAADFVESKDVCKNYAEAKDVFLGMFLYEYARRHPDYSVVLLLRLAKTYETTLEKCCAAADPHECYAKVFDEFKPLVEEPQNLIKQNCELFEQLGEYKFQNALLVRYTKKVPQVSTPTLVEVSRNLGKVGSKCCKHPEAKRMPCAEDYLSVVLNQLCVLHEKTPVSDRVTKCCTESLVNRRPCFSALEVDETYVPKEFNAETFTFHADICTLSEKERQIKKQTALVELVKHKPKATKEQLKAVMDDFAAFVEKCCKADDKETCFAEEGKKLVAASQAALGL

Data set [2] concerns the target T1, HSA. The data set is described as follows: Schild analysis of SST2 binding in the presence of HSA. Here is the method:
5 Schild analysis of SST2 binding in the presence of HAS. […] Simulation was performed in GraphPad Prism (version 10.2.3) according to the solution in PRISM language provided by Blakeley et al. for their derived cubic equation. (B, C) Exemplary saturation binding curves of [^64Cu]-Cu-NODAGA-cLAB2-TATE (B) and [^64Cu]-Cu-NODAGA-TATE (C) to intact MPC cells in the presence of increasing concentrations of HSA. For each curve, data shown are mean values (±SD) of one experiment, which was performed in triplicate. […] This plot was analyzed by linear regression. The simulation data provide a slope of unity, while for [^64Cu]-Cu-NODAGA-cLAB2-TATE, a slope of 0.69 (CI of 95%: 0.48–0.90, R ^2 = 0.990) was obtained.
Analyzing the experimental data by nonlinear regression according to the model of Blakeley et al. with fixed values for [HSA], [SST2], and K d[SST2], provided the K d[HSA] values (Table ). […]
For Schild analysis, the ratio (similar to the agonist dose ratio, DR) between the apparent K d value in the presence of each HSA concentration and the K d value in the absence of HSA was calculated. Then, the logarithm of these DR minus 1 (log(DR-1)) was calculated and plotted against the log of the concentration of HSA. This plot was analyzed by linear regression with the x-intercept equals to the log(K d) value of the radioligand for HSA.

Data set [3] has as its target human serum albumin (HSA) (Homo sapiens, UniProt P02768). Nature of the data set: Radiometric ultrafiltration assay for binding to HSA.
Description: The ultrafiltration assay used to quantify the binding of the ^64Cu-labeled peptides to HSA was performed as previously described for NODAGA-cLAB-TATEs. , Briefly, a constant activity amount of the radioligands (10–15 MBq) were mixed with different HSA concentrations (200 nM–1.4 mM). Aliquots were loaded into the ultrafiltration devices (4104 centrifugal filter units by Millipore; 30 000 Da nominal molecular weight limit, methylcellulose micropartition membranes) and centrifuged. After centrifugation, aliquots from the top and bottom fractions were measured in a γ-counter (PerkinElmer, Wizard^2 2480 automatic gamma counter). The retained fraction was calculated as a quotient of these measurements. The dissociation constant, K d, was calculated using the Morrison equation.
Data set [4] deals with MPC tumor-bearing NMRI-nu/nu mice. Also on record: method as in not given. Conditions: previous study of the authors, ref not given, cited from earlier work.
Data set [5] can be described thus: Plasma stability assay, mouse plasma. It is filed as in vitro ADME. An excerpt:
Previously, we discovered that the ^64Cu-labeled NODAGA-cLAB-TATEs with a primary amide functionality within the albumin-binding moiety are subject to a metabolic transformation in mouse plasma. In fact, the primary amide is slowly hydrolyzed to the carboxylic acid, which turned out to be catalyzed by plasma carboxylesterases as proven by blocking this transformation in the presence of bis-para-nitrophenylphosphate. […] As this transformation entails also an increase in the binding affinity to albumin, there might be effects on the biodistribution in mice, in particular the blood circulation time. To investigate this, NODAGA-cLAB6-TATE was designed, with cLAB6 (N3Bz-D-Lys(MPB)-NH2) representing the D-configured pendant of cLAB4 (N3Bz-L-Lys(MPB)-NH2). […] However, the apparent half-lives for both compounds (≈13 and >24 h) are longer compared to the half-lives previously determined for [ ^ 64 Cu]-Cu-NODAGA-cLAB3-TATE and [ ^ 64 Cu]-Cu-NODAGA-cLAB4-TATE (≈6 and ≈3 h, respectively). For better comparability, the stability of [ ^ 64 Cu]-Cu-NODAGA-cLAB4-TATE was again examined with the same mouse plasma batch used for [ ^ 64 Cu]-Cu-NODAGA-cLAB5-TATE and [ ^ 64 Cu]-Cu-NODAGA-cLAB4- scr TATE. […] Therefore, the discrepancy with our previously reported stability data in mouse plasma might result from differences in the activity of plasma carboxylesterases in the obtained mouse plasma. However, the rate of amide hydrolysis is indeed lower for [ ^ 64 Cu]-Cu-NODAGA-cLAB4- scr TATE, independent of the mouse plasma batch, which might indicate that the actual amino acid sequence in these peptides affects the recognition by the plasma carboxylesterases.
2 Stability of the ^64Cu-labeled TATE derivatives in mouse plasma. (A) Radio-HPLC chromatograms of [^64Cu]-Cu-NODAGA-cLAB5-TATE (red), [^64Cu]-Cu-NODAGA-cLAB6-TATE (green), and [^64Cu]-Cu-NODAGA-cLAB- scr TATE (blue) after ^64Cu-labeling and incubation in mouse plasma for 24 h show the transformation of [^64Cu]-Cu-NODAGA-cLAB5-TATE and [^64Cu]-Cu-NODAGA-cLAB4- scr TATE into a metabolite of higher retention time (see the Discussion for explanation). (B) Plot of residual intact radioligands upon incubation with mouse plasma including nonlinear regression (black line) according to one-phase decay for [^64Cu]-Cu-NODAGA-cLAB5-TATE (red circles). The dotted lines represent fractions of 0.5 and 0.9. Data shown are mean values (±SD) from 1 to 3 experiments (each experiment was performed in single execution). […]
(§1) Plasma stability of the radioligands was done as previously described for NODAGA-cLAB-TATE and NODAGA-NES-TATEs. , Briefly, an aliquot of the radioligand was added to plasma and stability was assessed at different time points by withdrawing an aliquot, followed by protein precipitation and analysis by radio-HPLC.

A further data set concerns MPC cells. Nature of the data set: Cell binding and uptake (internalization) in MPC cells. It is filed as cell-based, mouse. Here is the method:
Furthermore, the receptor-mediated endocytosis (referred to as internalization) of the novel compounds was assessed. The values for the internalized fraction (or “acid wash” resistant fraction) were >50% (Figure S5), which might indicate a similar pharmacological behavior of these ligands upon binding to SST2 as the parent ligand TATE.
Cell binding and uptake were measured as previously described. , MPC cells were seeded into collagen-coated 24-well microplates and cultivated for 4 days. All washing steps were performed using PBS containing 0.9 mM CaCl2 and 0.5 mM MgCl2. Total radioligand uptake was measured after incubation with the radioligand (A m = 30 GBq/μmol) at a final concentration of 20 nM in RPMI 1640 medium with GlutaMAX supplement (Thermo Fisher Scientific) for 1 h at 37 and 4 °C. Nonspecific binding was determined in the presence of 20 μM Acetyl-TATE. The uptake fraction was measured after acid wash of cell surface-bound radioligand with wash buffer containing 0.05 M glycine, pH 2.8, for 5 min. The activity of cell homogenates was measured using the γ counter Wizard (PerkinElmer). The protein content of cell homogenates was measured as described above.
Figure S5: Cell binding data
Data shown in A and B are mean values (±SD) of one experiment (NODAGA-cLAB(5/6)- TATE and NODAGA-cLAB4-scrTATE) or 3 experiments (±SEM, DOTA-EB-TATE), which were performed in sextuplicate. In C, the amount of specific “internalized” (acid resistant) radioligand (red bars in A, mean values) is expressed as percentage of specific total -bound radioligand (blue bars in A, mean values). The difference to 100% was assigned to “surface - bound” radioligand. For a better overview, the compound names were abbreviated. […]
specific binding of radioligand
Incubation at 37°C for 1 h
(% dose/mg of protein) Washing with
Incubation at 4°C for 1 h […]
(1 picture or pasted object on this page, not shown here)

The nature of data set [6]: n-Octanol/PBS distribution coefficient (log D7.4).
Description: The log D7.4 values of the ^64Cu-labeled peptides were determined with the octanol partitioning method.
The determination of the log D7.4 value was done in triplicate as previously described. , Briefly, a sample of the radioligand was added to the 1:1 mixture of PBS/n-octanol. The radioactivity in a defined volume of each layer was measured (ISOMED 2100). The distribution coefficient was expressed as the logarithm of the ratio of counts per minute (cpm) measured in the n-octanol phase to the cpm measured in the PBS phase.
Data set [7] in a line: Small-animal PET imaging in subcutaneous MPC tumor allograft model. The conditions noted are these: female, NMRI-nu/nu (Rj:NMRI-Foxn1nu/nu), mouse, tumor, iv, total radioactivity.
Description: (§2) The biodistribution of [ ^ 64 Cu]­Cu-NODAGA-cLAB­(5/6)-TATE, [ ^ 64 Cu]­Cu-NODAGA-cLAB4- scr TATE, and [ ^ 64 Cu]­Cu-DOTA-EB-TATE was assessed in a subcutaneous MPC tumor allograft model via small-animal PET imaging (Figure A–D). The time-activity curves (TACs) for tumor, kidneys, and heart are shown in Figure A–D (for TACs of muscle and liver, see Figure S6) and the calculated areas under curves (AUC0–48h) and tumor-to-tissue ratios are graphically summarized in Figure E,F, respectively.
(§3) (A–D) Time-activity curves (SUV, decay-corrected, as a function of time up to 48 h) obtained by PET acquisition are depicted (0–2 h in dynamic mode and time points 5, 24, and 48 h p.i.; the x-axes are segmented accordingly). Data shown are mean values (±SD) of a group of MPC tumor-bearing NMRI-nu/nu mice (n = 2, but for cLAB6-TATE n = 4). […] (E) Calculated AUC0–48h values. Data shown are mean values (±SD). (F) Tumor/organ ratios based in the AUC0–48h values.
(§4) A number of 4 × 10^6 MPC cells were resuspended in 40 μL of Dulbecco’s phosphate-buffered saline and injected subcutaneously into the shoulder of 7–10-week-old female nude mice (Rj:NMRI-Foxn1^nu/nu, Janvier Laboratories, Le Genest-Saint-Isle, France). General anesthesia was induced and maintained with inhalation of 10% (v/v) desflurane in 30% oxygen/air (v/v). Tumor growth was monitored using caliper measurements. Animals were sacrificed using CO2 inhalation and cervical dislocation. When diameters of MPC tumors reached 8 ± 3 mm (volumes of 65–282 mm^3), small-animal positron emission tomography (PET) was performed using the nanoScan PET/CT (Mediso Medical Imaging Systems, Budapest, Hungary) and Si78 PET/CT (BRUKER, Billerica, MA) instruments. Scanners were cross-calibrated using a syringe source containing 10 MBq of [^64Cu]­CuCl2 diluted in 2 mL of 0.01 M HCl. Each mouse (n = 2) received between 7 and 10 MBq of the respective radioligand (A m = 40 GBq/μmoL) delivered in 0.154 M NaCl via intravenous injection through a tail vein catheter within the initial 30 s after scan start. […] Standardized uptake values (SUV = [MBq detected activity/mL tissue]/[MBq injected activity/g body weight]) were determined in defined volumes of interest (VOIs) and reported as VOI-averaged SUVmean ± range [min–max]. Assuming a density of 1 g/mL for body tissues, the SUVs become dimensionless.
Data set [8] has as its system MPC tumor-bearing NMRI-nu/nu mice. The description is as above. The conditions noted are these: PET, i.v., 7–10 MBq/animal.
Description: as §2, §3, §4
Data set [9] in a line: Plasma stability assay, human plasma. The data set is classed as in vitro ADME. Conditions: 37 °C, up to 24 h, single experiment, read-out: t1/2 (plasma), human.
Description: Previously, we discovered that the ^64Cu-labeled NODAGA-cLAB-TATEs with a primary amide functionality within the albumin-binding moiety are subject to a metabolic transformation in mouse plasma. In fact, the primary amide is slowly hydrolyzed to the carboxylic acid, which turned out to be catalyzed by plasma carboxylesterases as proven by blocking this transformation in the presence of bis-para-nitrophenylphosphate. […] As this transformation entails also an increase in the binding affinity to albumin, there might be effects on the biodistribution in mice, in particular the blood circulation time. To investigate this, NODAGA-cLAB6-TATE was designed, with cLAB6 (N3Bz-D-Lys(MPB)-NH2) representing the D-configured pendant of cLAB4 (N3Bz-L-Lys(MPB)-NH2). […] However, the apparent half-lives for both compounds (≈13 and >24 h) are longer compared to the half-lives previously determined for [ ^ 64 Cu]-Cu-NODAGA-cLAB3-TATE and [ ^ 64 Cu]-Cu-NODAGA-cLAB4-TATE (≈6 and ≈3 h, respectively). […]
as §1

For orientation: logD means the decadic logarithm of the distribution of all forms, ionised or not, between an organic phase and buffer at a given pH.

Sequence of human serum albumin (HSA) (P02768 25-609): as above

For the molecule `C[C@@H](O)[C@H](NC(=O)[C@@H]1CSSC[C@H](NC(=O)[C@@H](Cc2ccccc2)NC(=O)COCCOCCNC(=O)[C@H](Cc2cn(-c3ccc(C(=O)N[C@@H](CCCCNC(=O)CCCc4ccc(I)cc4)C(=O)O)cc3)nn2)NC(=O)CC[C@H](C(=O)O)N2CCN(CC(=O)O)CCN(CC(=O)O)CC2)C(=O)N[C@@H](Cc2ccc(O)cc2)C(=O)N[C@H](Cc2c[nH]c3ccccc23)C(=O)N[C@@H](CCCCN)C(=O)N[C@@H]([C@@H](C)O)C(=O)N1)C(=O)O` [[64Cu]Cu-NODAGA-cLAB2-TATE, metal not drawn], the Kd on HSA [1] (1–100 μM HSA, read-out: Kd[HSA] derived from saturation binding, range over the HSA concentrations) was 2.6 to 6.1 µM; at HSA [1] ([HSA] 20 μM, read-out: Kd[HSA] derived from saturation binding), 3.06 µM; on HSA [1] ([HSA] 40 μM, read-out: Kd[HSA] derived from saturation binding), 2.59 µM; on HSA [1] ([HSA] 100 μM, read-out: Kd[HSA] derived from saturation binding) it was 6.12 µM; at HSA [2] (x-intercept of Schild plot, 5–100 μM HSA), 1.8 µM. In addition, the “slope of Schild plot” value at HSA [2] (linear regression, CI of 95%: 0.48–0.90) is listed as 0.69. The fu in data set [3] (1 μM HSA, fu=Kd/(Bmax+Kd)) is on record as 0.64; in data set [3] (5 μM HSA), 0.26; in data set [3] (20 μM HSA), 0.08; in [3] (40 μM HSA) it was 0.04; in data set [3] (100 μM HSA) it was 0.02. Further, the “tumor SUVmean” value in data set [4] (24 h p.i.) was 3.1; in data set [4] (48 h p.i.) it was 2.4. Moreover, in data set [4] (same MPC model), the “AUC0–48h[tumor]” value was 123 SUVmean*h.
`C[C@@H](O)[C@H](NC(=O)[C@@H]1CSSC[C@H](NC(=O)[C@@H](Cc2ccccc2)NC(=O)COCCOCCNC(=O)[C@H](Cc2cn(-c3ccc(C(=O)N[C@@H](CCCCNC(=O)CCCc4ccc(F)cc4)C(N)=O)cc3)nn2)NC(=O)CC[C@H](C(=O)O)N2CCN(CC(=O)O)CCN(CC(=O)O)CC2)C(=O)N[C@@H](Cc2ccc(O)cc2)C(=O)N[C@H](Cc2c[nH]c3ccccc23)C(=O)N[C@@H](CCCCN)C(=O)N[C@@H]([C@@H](C)O)C(=O)N1)C(=O)O` [[64Cu]Cu-NODAGA-cLAB5-TATE, metal not drawn]: the half-life in [5] (37 °C, up to 24 h, single experiment, read-out: t1/2 (plasma), mouse) is approximately 13 h. The “hydrolysis of the primary amide in mouse plasma” value in data set [5] (24 h, radio-HPLC) was “hydrolyzed”. Also, the “specific binding of radioligand” value in the data set on MPC cells (incubation at 4 °C for 1 h, washing with PBS pH 7.4, 20 nM) is recorded as 0.94 % dose/mg of protein. Moreover, the “specific binding of radioligand” value with MPC cells (incubation at 4 °C for 1 h, washing with glycine buffer pH 2.8, 20 nM) is recorded as 0.30 % dose/mg of protein. The “specific binding of radioligand” value with MPC cells (incubation at 37 °C for 1 h, washing with PBS pH 7.4 (total bound), 20 nM) was 5.74 %dose/mg of protein. In addition, the “specific binding of radioligand” value with MPC cells (incubation at 37 °C for 1 h, washing with glycine buffer pH 2.8 (acid resistant), 20 nM) is listed as 3.34 %dose/mg of protein. In data set [6], this molecule came in with a log distribution coefficient (logD) of -2.27. For the same molecule, in [7], the SUV is 8.9 SUV, the SUV at 2 h was 7.9 SUV, the SUV at 4 h was 4.9 SUV and the SUV at 24 h was determined as 2.3 SUV. Also, in data set [8], the AUC0-48h heart worked out at 5.98 SUVmean*h, the AUC0-48h kidney was determined as 32.36 SUVmean*h, the AUC0-48h liver is reported as 22.25 SUVmean*h and the AUC0-48h tumor is listed as 148 SUVmean*h. This molecule also displayed an AUC0-48h tumor in [8] (listed as cLAB5) of 148.10 SUVmean*h. For the same molecule, the Kd in data set [3] is 440 µM. Further, the half-life in data set [9] is more than 24 h.
